Earlier results on 9 compounds are cited in patent publication US20230149377A1, “PHARMACEUTICAL METHODS” (ELEVAR THERAPEUTICS, INC., priority 2018, published 2023).

The conditions of series [1]: observed safety issues, approved drugs.
The conditions of series [2]: Phase 1, 46 patients.
The conditions of series [3]: single dose.
Another series deals with gastric cancer. To be noted: Phase 3.
The target in another series is VEGFR-2 (Homo sapiens, UniProt P35968). To be noted: nonclinical.
The subject of series [4] is tumor bearing animal models.
For series [5] the following is noted: 81 mg rivoceranib dose (100 mg mesylate), healthy volunteers.

Where a name gives a salt, the structure may show the parent alone.

Chain of VEGFR-2 (P35968 20-1356, species assumed): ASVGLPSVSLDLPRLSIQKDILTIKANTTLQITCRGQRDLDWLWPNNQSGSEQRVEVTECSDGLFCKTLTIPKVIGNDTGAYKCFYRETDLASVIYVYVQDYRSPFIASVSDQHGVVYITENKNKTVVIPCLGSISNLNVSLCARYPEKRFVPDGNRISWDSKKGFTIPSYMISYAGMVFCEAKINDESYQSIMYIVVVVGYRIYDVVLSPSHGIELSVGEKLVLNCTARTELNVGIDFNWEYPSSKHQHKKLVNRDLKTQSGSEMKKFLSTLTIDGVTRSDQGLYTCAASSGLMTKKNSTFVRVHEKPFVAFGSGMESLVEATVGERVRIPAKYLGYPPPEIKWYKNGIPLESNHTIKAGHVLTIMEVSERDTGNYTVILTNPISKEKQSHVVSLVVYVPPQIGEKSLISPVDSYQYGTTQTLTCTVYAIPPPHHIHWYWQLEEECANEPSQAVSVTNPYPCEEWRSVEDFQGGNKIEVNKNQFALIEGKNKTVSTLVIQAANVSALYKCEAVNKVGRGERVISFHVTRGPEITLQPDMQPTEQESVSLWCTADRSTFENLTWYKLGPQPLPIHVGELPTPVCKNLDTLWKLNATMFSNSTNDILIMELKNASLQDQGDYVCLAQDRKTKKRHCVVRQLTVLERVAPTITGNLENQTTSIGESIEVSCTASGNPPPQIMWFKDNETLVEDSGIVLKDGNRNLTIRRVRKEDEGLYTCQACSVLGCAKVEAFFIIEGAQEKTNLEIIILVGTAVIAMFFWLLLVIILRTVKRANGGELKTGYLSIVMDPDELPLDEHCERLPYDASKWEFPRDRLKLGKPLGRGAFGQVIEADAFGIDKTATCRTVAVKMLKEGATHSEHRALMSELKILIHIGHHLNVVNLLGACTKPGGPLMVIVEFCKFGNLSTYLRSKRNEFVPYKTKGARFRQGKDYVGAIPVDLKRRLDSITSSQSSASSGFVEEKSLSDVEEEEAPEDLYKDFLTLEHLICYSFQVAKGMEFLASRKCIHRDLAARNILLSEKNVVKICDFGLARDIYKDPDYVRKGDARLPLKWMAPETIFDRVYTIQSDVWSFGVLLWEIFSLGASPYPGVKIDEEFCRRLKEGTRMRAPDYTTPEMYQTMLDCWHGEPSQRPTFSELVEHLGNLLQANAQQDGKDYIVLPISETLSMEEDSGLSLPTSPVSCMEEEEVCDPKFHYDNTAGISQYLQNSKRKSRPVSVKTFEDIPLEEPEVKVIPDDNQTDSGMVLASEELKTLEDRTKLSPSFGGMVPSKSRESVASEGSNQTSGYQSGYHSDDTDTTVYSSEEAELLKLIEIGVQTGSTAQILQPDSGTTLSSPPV

In the case of `Cc1nc(Nc2ncc(C(=O)Nc3c(C)cccc3Cl)s2)cc(N2CCN(CCO)CC2)n1` [Dasatinib], in series [1], the “Safety Profile: Central nervous system” value is given as “R”, the “Safety Profile: Liver/Bile” value is “R”, the “Safety Profile: Musculoskeletal/bone” value is reported as “R” and the “Safety Profile: Renal” value is given as “R”.

Regarding `C#Cc1cccc(Nc2ncnc3cc(OCCOC)c(OCCOC)cc23)c1` [Erlotinib], in series [1], the “Safety Profile: Blood/lymph system” value was “R”, the “Safety Profile: Central nervous system” value is reported as “R” and the “Safety Profile: Liver/Bile” value is given as “R”.

For the compound `CS(=O)(=O)CCNCc1ccc(-c2ccc3ncnc(Nc4ccc(OCc5cccc(F)c5)c(Cl)c4)c3c2)o1` [Lapatinib], in series [1], the “Safety Profile: Central nervous system” value is given as “R” and the “Safety Profile: Heart” value is “R”.

On to `Cc1cn(-c2cc(NC(=O)c3ccc(C)c(Nc4nccc(-c5cccnc5)n4)c3)cc(C(F)(F)F)c2)cn1` [Nilotinib], for which, in series [1], the “Safety Profile: Central nervous system” value is “R”, the “Safety Profile: GI” value is given as “R”, the “Safety Profile: Musculoskeletal/bone” value is “R” and the “Safety Profile: Renal” value is listed as “R”. Besides, the “Safety Profile: Vascular” value in series [1] is on record as “R”.

Regarding `Cc1ccc(Nc2nccc(N(C)c3ccc4c(C)n(C)nc4c3)n2)cc1S(N)(=O)=O` [Pazopanib], in series [1], the “Safety Profile: Heart” value is listed as “R”.

Regarding `CNC(=O)c1cc(Oc2ccc(NC(=O)Nc3ccc(Cl)c(C(F)(F)F)c3)cc2)ccn1` [Sorafenib], in series [1], the “Safety Profile: Central nervous system” value was “R”, the “Safety Profile: GI” value is given as “R”, the “Safety Profile: Heart” value was “R” and the “Safety Profile: Liver/Bile” value was “R”. Besides, in series [1], the “Safety Profile: Lung airways” value is “R”, the “Safety Profile: Musculoskeletal/bone” value is listed as “R” and the “Safety Profile: Renal” value was “R”.

`CCN(CC)CCNC(=O)c1c(C)[nH]c(/C=C2\C(=O)Nc3ccc(F)cc32)c1C` [Sunitinib]: in series [1], the “Safety Profile: Central nervous system” value is reported as “R”, the “Safety Profile: Heart” value was “R” and the “Safety Profile: Liver/Bile” value was “R”.

With `N#CC1(c2ccc(NC(=O)c3cccnc3NCc3ccncc3)cc2)CCCC1` [rivoceranib mesylate], the maximum tolerated dose in series [2] is reported as 850 mg. Also, in series [3] (healthy male), the “AUC0-∞ in Chinese and Japanese subjects compared to Caucasian subjects” value is “slightly higher”; the “Cmax in Chinese and Japanese subjects compared to Caucasian subjects” value is given as “slightly higher”. For the same compound, in series [3] (similar amongst Caucasian, Japanese and Chinese groups), the t1/2 is 7.5 to 8 h.

As for `N#CC1(c2ccc(NC(=O)c3cccnc3NCc3ccncc3)cc2)CCCC1` [rivoceranib, N-[4-(1-cyanocyclopentyl)phenyl]-2-{[(pyridin-4-yl)methyl]amino} pyridine-3-carboxamide], in the series on gastric cancer, the “Grade 3/4 adverse reactions that occurred in more than 2% of patients” value was “hypertension, HFS, proteinuria, fatigue, anorexia, and elevated aminotransferase”; the “median overall survival (OS) compared to placebo” value is recorded as “prolonged”; the “median progression-free survival (PFS) compared to placebo” value is “prolonged”. Further, the “binding to VEGFR-2” value at VEGFR-2 is “selectively binds”. The “side effects in animals” value in series [4] (at efficacious doses) is “minimal side effects”. Also, the “efficacy in various tumor bearing animal models” value in series [4] (nonclinical) was “efficacious”. For the same compound, the “Food effects on the bioavailability” value in series [5] was “minimal”.
